Assay results: the OPERA property sets (Mansouri et al. 2018)

conditions: not given

Going from `CC(F)(F)C(Cl)(Cl)Cl` to `FC(F)(F)COCC(F)(F)F`, the boiling point falls from 73 °C to 63.9 °C.

Compared with `CC1CNCC(C)O1` (stereo unspecified), `CC1CCOS(=O)O1` (stereo unspecified) is higher in boiling point: 147 °C for the first, 185 °C for the second.

Going from `Clc1ccc(-c2ccccc2)cc1` to `Clc1ccc(Oc2ccccc2)cc1`, the boiling point falls from 293 °C to 284 °C.

Compared with `ClCC=C(Cl)Cl`, `CCC(Cl)CC` is lower in boiling point: 132 °C for the first, 97.5 °C for the second.

First: CCOCCBr
Second: CCCCCCC(C)N (stereo unspecified)
The boiling point of the first is lower: 128 °C for the first, 165 °C for the second.

Going from `COc1ccc(O)cc1` to `Cc1ccc(N=C=S)cc1`, the boiling point falls from 243 °C to 237 °C.

Going from `OCCCc1ccncc1` to `CCOc1ccccc1N`, the boiling point falls from 289 °C to 232 °C.

Compared with `CCOC(=O)CCCC(=O)OCC`, `CCCCCCCCCCCCC(=O)O` is higher in boiling point: 236 °C for the first, 312 °C for the second.

Going from `N#CCI` to `CC#CCC(C)C`, the boiling point falls from 185 °C to 102 °C.

Compared with `CCC1CCc2ccccc21` (stereo unspecified), `CC(C)(C)c1ccccc1N` is higher in boiling point: 212 °C for the first, 234 °C for the second.

First: CCCCCCCCCCCCCCCCCN
Second: CC(C)C[N+](=O)[O-]
The boiling point of the first is higher: 336 °C for the first, 140 °C for the second.

Compared with `c1ccc2c(c1)Cc1ccccc1S2`, `CN(C)c1cccc(N)c1` is lower in boiling point: 341 °C for the first, 270 °C for the second.

Compared with `CC(=O)C=C(C)C`, `CC(C)C(C)C` is lower in boiling point: 130 °C for the first, 57.9 °C for the second.

First: O=[N+]([O-])c1cccs1
Second: CC(C)N(C)C
The boiling point of the first is higher: 224 °C for the first, 66 °C for the second.

In the case of `CC(C)OC(C)C`, the boiling point is reported as 68.5 °C.

Compared with `CC1CNCC(C)O1` (stereo unspecified), `CC1CCOS(=O)O1` (stereo unspecified) is higher in melting point: -88 °C for the first, 5 °C for the second.

First: Cn1c(=O)c2c(ncn2CCO)n(C)c1=O
Second: CCCCCc1ccc(C)cc1O
The melting point of the first is higher: 158 °C for the first, 24 °C for the second.

Going from `CCNC(N)=S` to `CCOC(=O)CCCC(=O)OCC`, the melting point falls from 112 °C to -24.1 °C.

Compared with `Clc1ccc(-c2ccccc2)cc1`, `Cc1cccc2ccc3ccccc3c12` is lower in melting point: 78.8 °C for the first, 53.5 °C for the second.

First: NCc1ccccc1Sc1ccccc1CO
Second: c1ccc2c(c1)Cc1ccccc1S2
The melting point of the first is lower: 97 °C for the first, 128 °C for the second.

Compared with `CC=CC=CC=CC=O`, `CC(=O)C=NO` is higher in melting point: 56.8 °C for the first, 69 °C for the second.

Going from `COc1ccc(O)cc1` to `COC(=O)c1ccc(O)cc1O`, the melting point rises from 57 °C to 120 °C.

Compared with `Cc1ccc(N=C=S)cc1`, `Nc1cccc(O)c1` is higher in melting point: 25.5 °C for the first, 123 °C for the second.

Compared with `OCCCc1ccncc1`, `Nc1cc(C(=O)O)ccc1Cl` is higher in melting point: 37 °C for the first, 214 °C for the second.

Compared with `Clc1cc2c(oc3c(Cl)c(Cl)c(Cl)cc32)c(Cl)c1Cl`, `CCOP(=S)(OCC)Oc1ccc2c(C)c(Cl)c(=O)oc2c1` is lower in melting point: 240 °C for the first, 93 °C for the second.

Compared with `Cc1c(F)c(F)c(COC(=O)C2C(/C=C(\Cl)C(F)(F)F)C2(C)C)c(F)c1F` (stereo unspecified), `COc1ccc2c(=O)c(C)c(-c3ccccc3)oc2c1CN(C)C` is higher in melting point: 44.6 °C for the first, 110 °C for the second.

First: O=C1C=CC(=O)c2c(Cl)cccc21
Second: NS(=O)(=O)c1cc2c(cc1Cl)NCNS2(=O)=O
The melting point of the first is lower: 163 °C for the first, 274 °C for the second.

Compared with `CCCCCCCCCCCCCCCCCN`, `CCCCCCCCCCCCC(=O)O` is lower in melting point: 49 °C for the first, 44.5 °C for the second.

First: O=C(CO)[C@@H](O)[C@H](O)[C@@H](O)CO
Second: CC(=O)C=C(C)C
The melting point of the first is higher: 165 °C for the first, -59 °C for the second.

First: CC#CCC(C)C
Second: CC(C)C[N+](=O)[O-]
The melting point of the first is lower: -92.9 °C for the first, -76.8 °C for the second.

Going from `CCCCCCCCC#CCCCCCCCC(=O)O` to `CCC(Cl)CC`, the melting point falls from 48 °C to -105 °C.

First: O=[N+]([O-])c1cccs1
Second: N=CNO
The melting point of the first is lower: 46.5 °C for the first, 114 °C for the second.

Going from `CC(C)C(C)C` to `CC(C)OC(C)C`, the melting point rises from -129 °C to -86.8 °C.

Compound `CCCCCCCCOC(=O)c1ccccc1C(=O)OCCCCCCCC` has a log10 Koc (L/kg) of 4.38.

First: CCCCCCCCOC(=O)c1ccccc1C(=O)OCCCCCCCC
Second: CCCCCCCCCCCCC(=O)O
The log10 vapour pressure (mmHg) of the first is lower: -7 for the first, -4.9 for the second.

Going from `Clc1ccc(-c2ccccc2)cc1` to `Clc1ccc(Oc2ccccc2)cc1`, the log10 vapour pressure (mmHg) falls from -1.98 to -2.57.

First: FC(F)(F)COCC(F)(F)F
Second: Cc1c(F)c(F)c(COC(=O)C2C(/C=C(\Cl)C(F)(F)F)C2(C)C)c(F)c1F (stereo unspecified)
The log10 vapour pressure (mmHg) of the first is higher: 2.19 for the first, -4.22 for the second.

Compared with `CCOC(=O)CCCC(=O)OCC`, `CCOP(=S)(OCC)Oc1ccc2c(C)c(Cl)c(=O)oc2c1` is lower in log10 vapour pressure (mmHg): -0.793 for the first, -7.01 for the second.

Going from `OCCCBr` to `CCC(Cl)CC`, the log10 vapour pressure (mmHg) rises from -1 to 1.67.

Going from `CC(C)C[N+](=O)[O-]` to `CC(C)C(C)C`, the log10 vapour pressure (mmHg) rises from 0.838 to 2.37.

Compared with `CC(=O)C=C(C)C`, `CC(C)OC(C)C` is higher in log10 vapour pressure (mmHg): 0.914 for the first, 2.17 for the second.

In the case of `CCCCCCCCOC(=O)c1ccccc1C(=O)OCCCCCCCC`, the ready biodegradability is reported as “readily biodegradable”.
For `Clc1ccc(-c2ccccc2)cc1`, the ready biodegradability was “readily biodegradable”.
With `COc1ccc(O)cc1` the ready biodegradability was “readily biodegradable”.
With `CC(=O)C=C(C)C` the ready biodegradability was “readily biodegradable”.
With `Nc1cccc(O)c1` the ready biodegradability was “not readily biodegradable”.
For `CC(C)OC(C)C`, the ready biodegradability was “not readily biodegradable”.

Going from `Clc1ccc(-c2ccccc2)cc1` to `Clc1cccc(-c2cc(Cl)ccc2Cl)c1`, the log10 Henry constant (atm·m³/mol) falls from -3.24 to -3.7.

For `CC(C)OC(C)C`, the log10 Henry constant (atm·m³/mol) was -2.59.

First: Clc1ccc(-c2ccccc2)cc1
Second: Clc1cc2c(oc3c(Cl)c(Cl)c(Cl)cc32)c(Cl)c1Cl
The log10 Koa of the first is lower: 6.8 for the first, 10.9 for the second.

Work on `CC(C)OC(C)C` yielded a log10 Koa of 2.66.

same assay, conditions: fish

Going from `Clc1cc2c(oc3c(Cl)c(Cl)c(Cl)cc32)c(Cl)c1Cl` to `Nc1cccc(O)c1`, the log10 BCF falls from 3.98 to 1.34.

First: Clc1cc2c(oc3c(Cl)c(Cl)c(Cl)cc32)c(Cl)c1Cl
Second: Clc1ccc(Oc2cc(Cl)c(Cl)cc2Cl)cc1
The log10 biotransformation half-life (days) of the first is lower: 1.12 for the first, 1.93 for the second.
